According to patent publication US12281080B2, “Quinoline-based compounds and methods of inhibiting CDK8/19” (University of South Carolina, priority 2018, dated 2025):

Assays:
MYO3B = MYO3B (Homo sapiens (Human), UniProt Q8WXR4); assay: DiscoverX Kd assay; settings: average from duplicate measurements
MYO3A = MYO3A (Homo sapiens (Human), UniProt Q8NEV4); assay: KINOMEscan scanMAX; assay type: binding; settings: 2000 nM; read-out: Percent Control
MST4 = MST4 (Homo sapiens (Human), UniProt Q9P289); assay: KINOMEscan scanMAX; assay type: binding; settings: 2000 nM; read-out: Percent Control
CDK4 = CDK4 (Homo sapiens (Human), UniProt P11802); assay: KINOMEscan scanMAX; assay type: binding; settings: 2000 nM; read-out: Percent Control
MRCKA (CDC42BPA) = MRCKA (CDC42BPA) (Homo sapiens (Human), UniProt Q5VT25); assay: KINOMEscan scanMAX; assay type: binding; settings: 2000 nM; read-out: Percent Control
JNK2 (MAPK9) = JNK2 (MAPK9) (Homo sapiens (Human), UniProt P45984); assay: KINOMEscan scanMAX; assay type: binding; settings: 2000 nM; read-out: Percent Control
[1] = target: ABL1(Q252H)-nonphosphorylated (Homo sapiens (Human), UniProt P00519, Q252H); assay: KINOMEscan scanMAX; assay type: binding; settings: 2000 nM; read-out: Percent Control
AAK1 = AAK1 (Homo sapiens (Human), UniProt Q2M2I8); assay: KINOMEscan scanMAX; assay type: binding; settings: 2000 nM; read-out: Percent Control
IL8 = assay: QPCR gene expression in TNFα-treated HEK293 cells; assay type: cell-based, human; settings: Homo sapiens, HEK293; range stated for all three genes
Excerpt: (§1) Two types of cell-based assays for CDK8/19 inhibition were used to test the efficacy of quinoline quinolone compounds described herein (FIG. 3A). The first cell-based assay, which measures the effects of CDK8/19 inhibitors on RNA levels of CDK8/19-regulated genes by quantitative reverse transcription-PCR (QPCR), is based on the ability of CDK8/19 inhibitors to suppress the induction of NFκB-inducible genes by TNFα and to inhibit basal expression of MYC in human embryonic kidney (HEK) 293 cells, as previously described. In this assay, 293 cells growing in DMEM (High-glucose) media supplemented with 10% FBS are pre-treated with the tested inhibitors or DMSO control for 1 hour and then treated with 10 ng/mL TNFα (an activator of NFκB) for 2 hours (in the presence or absence of the tested inhibitors), followed by RNA extraction and QPCR analysis of RNA expression of specific genes conducted as described (Chen et al., ibid), using housekeeping genes RPL13A and GAPDH as normalization standards. […] All the quinoline derivatives inhibited the expression of all three genes.

MYC = assay: QPCR gene expression in TNFα-treated HEK293 cells; assay type: cell-based, human; settings: Homo sapiens, HEK293; range stated for all three genes
Excerpt: as §1

CXCL1 = assay: QPCR gene expression in TNFα-treated HEK293 cells; assay type: cell-based, human; settings: Homo sapiens, HEK293; range stated for all three genes
Excerpt: as §1

MARK1 = MARK1 (Homo sapiens (Human), UniProt Q9P0L2); assay: KINOMEscan scanMAX; assay type: binding; settings: 2000 nM; read-out: Percent Control
ABL1-phosphorylated = ABL1-phosphorylated (Homo sapiens (Human), UniProt P00519); assay: KINOMEscan scanMAX; assay type: binding; settings: 2000 nM; read-out: Percent Control
NLK = NLK (Homo sapiens (Human), UniProt Q9UBE8); assay: KINOMEscan scanMAX; assay type: binding; settings: 2000 nM; read-out: Percent Control
BLK = BLK (Homo sapiens (Human), UniProt P51451); assay: KINOMEscan scanMAX; assay type: binding; settings: 2000 nM; read-out: Percent Control
ASK2 (MAP3K6) = ASK2 (MAP3K6) (Homo sapiens (Human), UniProt O95382); assay: KINOMEscan scanMAX; assay type: binding; settings: 2000 nM; read-out: Percent Control
CDC2L5 (CDK13) = CDC2L5 (CDK13) (Homo sapiens (Human), UniProt Q14004); assay: KINOMEscan scanMAX; assay type: binding; settings: 2000 nM; read-out: Percent Control
KIT(V559D, V654A) = KIT(V559D, V654A) (Homo sapiens (Human), UniProt P10721, V559D/V654A); assay: KINOMEscan scanMAX; assay type: binding; settings: 2000 nM; read-out: Percent Control
BTK = BTK (Homo sapiens (Human), UniProt Q06187); assay: KINOMEscan scanMAX; assay type: binding; settings: 2000 nM; read-out: Percent Control
RIPK4 = RIPK4 (Homo sapiens (Human), UniProt P57078); assay: KINOMEscan scanMAX; assay type: binding; settings: 2000 nM; read-out: Percent Control
PAK4 = PAK4 (Homo sapiens (Human), UniProt O96013); assay: KINOMEscan scanMAX; assay type: binding; settings: 2000 nM; read-out: Percent Control
MAP3K4 = MAP3K4 (Homo sapiens (Human), UniProt Q9Y6R4); assay: KINOMEscan scanMAX; assay type: binding; settings: 2000 nM; read-out: Percent Control
TXK = TXK (Homo sapiens (Human), UniProt P42681); assay: KINOMEscan scanMAX; assay type: binding; settings: 2000 nM; read-out: Percent Control
ACVR1 = ACVR1 (Homo sapiens (Human), UniProt Q04771); assay: KINOMEscan scanMAX; assay type: binding; settings: 2000 nM; read-out: Percent Control
ERK3 (MAPK6) = ERK3 (MAPK6) (Homo sapiens (Human), UniProt Q16659); assay: KINOMEscan scanMAX; assay type: binding; settings: 2000 nM; read-out: Percent Control
PFTK1 (CDK14) = PFTK1 (CDK14) (Homo sapiens (Human), UniProt O94921); assay: KINOMEscan scanMAX; assay type: binding; settings: 2000 nM; read-out: Percent Control
[2] = target: RSK4(Kin.Dom.1-N-terminal) (RPS6KA6) (Homo sapiens (Human), UniProt Q9UK32); assay: KINOMEscan scanMAX; assay type: binding; settings: 2000 nM; read-out: Percent Control
MLK3 (MAP3K11) = MLK3 (MAP3K11) (Homo sapiens (Human), UniProt Q16584); assay: KINOMEscan scanMAX; assay type: binding; settings: 2000 nM; read-out: Percent Control
SNARK (NUAK2) = SNARK (NUAK2) (Homo sapiens (Human), UniProt Q9H093); assay: KINOMEscan scanMAX; assay type: binding; settings: 2000 nM; read-out: Percent Control
CDK3 = CDK3 (Homo sapiens (Human), UniProt Q00526); assay: KINOMEscan scanMAX; assay type: binding; settings: 2000 nM; read-out: Percent Control
CSF1R-autoinhibited = CSF1R-autoinhibited (Homo sapiens (Human), UniProt P07333); assay: KINOMEscan scanMAX; assay type: binding; settings: 2000 nM; read-out: Percent Control
CSF1R = CSF1R (Homo sapiens (Human), UniProt P07333); assay: KINOMEscan scanMAX; assay type: binding; settings: 2000 nM; read-out: Percent Control
YANK2 (STK32B) = YANK2 (STK32B) (Homo sapiens (Human), UniProt Q9NY57); assay: KINOMEscan scanMAX; assay type: binding; settings: 2000 nM; read-out: Percent Control
FES = FES (Homo sapiens (Human), UniProt P07332); assay: KINOMEscan scanMAX; assay type: binding; settings: 2000 nM; read-out: Percent Control
Chain of FES (P07332 whole entry): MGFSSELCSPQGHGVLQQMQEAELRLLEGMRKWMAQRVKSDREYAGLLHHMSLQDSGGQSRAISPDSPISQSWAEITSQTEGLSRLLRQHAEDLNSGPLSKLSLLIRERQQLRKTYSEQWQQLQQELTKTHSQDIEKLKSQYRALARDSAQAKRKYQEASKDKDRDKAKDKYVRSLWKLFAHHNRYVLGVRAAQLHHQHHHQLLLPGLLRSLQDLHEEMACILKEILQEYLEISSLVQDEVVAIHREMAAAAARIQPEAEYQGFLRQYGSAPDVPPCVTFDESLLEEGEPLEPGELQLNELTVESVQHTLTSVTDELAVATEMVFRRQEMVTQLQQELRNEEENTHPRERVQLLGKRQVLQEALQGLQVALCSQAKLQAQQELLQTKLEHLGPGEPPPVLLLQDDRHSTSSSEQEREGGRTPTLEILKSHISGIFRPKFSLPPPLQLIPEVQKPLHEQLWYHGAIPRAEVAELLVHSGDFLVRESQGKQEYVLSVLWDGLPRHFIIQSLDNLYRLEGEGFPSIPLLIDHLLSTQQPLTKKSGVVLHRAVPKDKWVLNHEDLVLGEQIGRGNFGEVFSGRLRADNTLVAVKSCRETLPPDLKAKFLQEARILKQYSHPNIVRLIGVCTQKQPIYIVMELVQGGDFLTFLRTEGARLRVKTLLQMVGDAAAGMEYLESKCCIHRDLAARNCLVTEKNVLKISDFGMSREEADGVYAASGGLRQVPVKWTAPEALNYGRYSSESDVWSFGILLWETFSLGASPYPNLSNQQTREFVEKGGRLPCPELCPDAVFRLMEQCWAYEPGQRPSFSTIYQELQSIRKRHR

Chain of RIPK4 (P57078 whole entry): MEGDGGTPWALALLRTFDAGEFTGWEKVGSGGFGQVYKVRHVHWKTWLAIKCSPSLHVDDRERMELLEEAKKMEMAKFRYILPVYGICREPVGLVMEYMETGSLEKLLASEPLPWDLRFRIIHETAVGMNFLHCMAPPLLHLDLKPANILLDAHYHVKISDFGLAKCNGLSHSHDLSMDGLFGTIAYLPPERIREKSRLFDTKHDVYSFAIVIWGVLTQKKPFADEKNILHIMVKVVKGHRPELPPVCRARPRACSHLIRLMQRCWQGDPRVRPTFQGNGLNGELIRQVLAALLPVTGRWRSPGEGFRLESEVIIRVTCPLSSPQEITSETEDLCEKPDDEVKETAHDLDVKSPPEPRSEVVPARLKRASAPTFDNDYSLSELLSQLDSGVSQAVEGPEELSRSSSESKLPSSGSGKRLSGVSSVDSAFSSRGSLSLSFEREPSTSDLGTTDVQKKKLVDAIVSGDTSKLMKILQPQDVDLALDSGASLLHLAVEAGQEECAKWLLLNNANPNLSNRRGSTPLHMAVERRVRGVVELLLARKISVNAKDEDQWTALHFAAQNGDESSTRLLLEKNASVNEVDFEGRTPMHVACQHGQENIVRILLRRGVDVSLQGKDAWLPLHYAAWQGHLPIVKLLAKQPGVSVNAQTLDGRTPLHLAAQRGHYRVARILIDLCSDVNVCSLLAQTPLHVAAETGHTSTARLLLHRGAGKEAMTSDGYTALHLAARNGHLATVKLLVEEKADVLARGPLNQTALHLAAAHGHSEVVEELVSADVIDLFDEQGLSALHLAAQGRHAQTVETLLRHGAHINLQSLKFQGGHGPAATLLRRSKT
Chain of MLK3 (MAP3K11) (Q16584 whole entry): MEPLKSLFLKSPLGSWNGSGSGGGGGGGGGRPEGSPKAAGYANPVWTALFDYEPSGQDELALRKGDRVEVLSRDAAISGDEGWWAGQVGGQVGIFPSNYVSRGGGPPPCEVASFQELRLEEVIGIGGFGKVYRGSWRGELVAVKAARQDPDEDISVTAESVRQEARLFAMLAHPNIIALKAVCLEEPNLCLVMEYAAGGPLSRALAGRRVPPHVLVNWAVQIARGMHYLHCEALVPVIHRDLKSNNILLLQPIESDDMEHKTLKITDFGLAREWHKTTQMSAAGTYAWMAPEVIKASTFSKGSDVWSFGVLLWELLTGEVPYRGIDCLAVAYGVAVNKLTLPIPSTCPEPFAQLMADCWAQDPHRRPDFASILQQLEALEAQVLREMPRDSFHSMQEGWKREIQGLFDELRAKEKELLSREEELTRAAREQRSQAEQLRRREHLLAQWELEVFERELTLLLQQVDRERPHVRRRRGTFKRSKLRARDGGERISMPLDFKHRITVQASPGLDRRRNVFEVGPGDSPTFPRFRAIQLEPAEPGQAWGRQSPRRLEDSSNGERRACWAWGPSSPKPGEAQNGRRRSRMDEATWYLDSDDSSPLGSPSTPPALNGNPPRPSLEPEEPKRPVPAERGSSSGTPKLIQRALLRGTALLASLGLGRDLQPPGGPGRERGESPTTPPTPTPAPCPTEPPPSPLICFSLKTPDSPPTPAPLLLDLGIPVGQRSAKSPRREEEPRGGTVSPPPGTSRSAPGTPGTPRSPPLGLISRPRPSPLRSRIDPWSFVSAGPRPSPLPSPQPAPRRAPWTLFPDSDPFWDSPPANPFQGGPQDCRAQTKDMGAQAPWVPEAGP
Chain of CDK4 (P11802 whole entry): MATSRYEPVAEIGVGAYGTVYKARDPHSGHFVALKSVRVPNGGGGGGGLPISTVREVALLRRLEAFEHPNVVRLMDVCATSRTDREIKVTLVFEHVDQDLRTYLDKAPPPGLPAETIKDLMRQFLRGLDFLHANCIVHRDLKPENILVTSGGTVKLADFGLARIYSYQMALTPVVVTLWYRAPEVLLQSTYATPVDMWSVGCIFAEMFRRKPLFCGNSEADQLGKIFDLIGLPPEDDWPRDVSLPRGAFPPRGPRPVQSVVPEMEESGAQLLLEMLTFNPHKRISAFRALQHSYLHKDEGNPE
Chain of AAK1 (Q2M2I8 whole entry): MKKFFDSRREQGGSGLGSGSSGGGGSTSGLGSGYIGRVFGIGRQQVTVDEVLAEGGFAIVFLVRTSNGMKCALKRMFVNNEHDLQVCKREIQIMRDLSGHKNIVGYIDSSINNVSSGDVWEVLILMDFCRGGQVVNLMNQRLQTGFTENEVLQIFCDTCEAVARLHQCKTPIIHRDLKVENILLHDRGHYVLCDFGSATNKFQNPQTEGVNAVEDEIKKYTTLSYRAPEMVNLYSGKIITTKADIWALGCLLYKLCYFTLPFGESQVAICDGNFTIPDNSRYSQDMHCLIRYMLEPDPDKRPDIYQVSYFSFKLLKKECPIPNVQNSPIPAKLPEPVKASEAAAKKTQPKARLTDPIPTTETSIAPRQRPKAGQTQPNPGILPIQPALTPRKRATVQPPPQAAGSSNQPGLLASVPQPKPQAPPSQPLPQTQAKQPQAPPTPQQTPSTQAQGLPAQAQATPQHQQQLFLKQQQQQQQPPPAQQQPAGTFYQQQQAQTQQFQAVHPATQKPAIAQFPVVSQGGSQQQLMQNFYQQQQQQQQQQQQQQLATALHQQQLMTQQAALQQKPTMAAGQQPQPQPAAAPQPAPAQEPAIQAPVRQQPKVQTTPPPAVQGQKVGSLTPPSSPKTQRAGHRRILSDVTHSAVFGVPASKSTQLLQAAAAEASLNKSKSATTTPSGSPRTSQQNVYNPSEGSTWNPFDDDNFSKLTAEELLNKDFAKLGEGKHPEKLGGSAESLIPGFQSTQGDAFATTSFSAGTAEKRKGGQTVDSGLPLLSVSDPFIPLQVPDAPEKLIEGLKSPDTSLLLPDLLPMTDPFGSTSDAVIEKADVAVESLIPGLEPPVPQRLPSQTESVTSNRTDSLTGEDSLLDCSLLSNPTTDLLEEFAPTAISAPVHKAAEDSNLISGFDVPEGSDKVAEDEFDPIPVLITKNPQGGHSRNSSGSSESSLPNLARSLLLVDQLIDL
Chain of ASK2 (MAP3K6) (O95382 whole entry): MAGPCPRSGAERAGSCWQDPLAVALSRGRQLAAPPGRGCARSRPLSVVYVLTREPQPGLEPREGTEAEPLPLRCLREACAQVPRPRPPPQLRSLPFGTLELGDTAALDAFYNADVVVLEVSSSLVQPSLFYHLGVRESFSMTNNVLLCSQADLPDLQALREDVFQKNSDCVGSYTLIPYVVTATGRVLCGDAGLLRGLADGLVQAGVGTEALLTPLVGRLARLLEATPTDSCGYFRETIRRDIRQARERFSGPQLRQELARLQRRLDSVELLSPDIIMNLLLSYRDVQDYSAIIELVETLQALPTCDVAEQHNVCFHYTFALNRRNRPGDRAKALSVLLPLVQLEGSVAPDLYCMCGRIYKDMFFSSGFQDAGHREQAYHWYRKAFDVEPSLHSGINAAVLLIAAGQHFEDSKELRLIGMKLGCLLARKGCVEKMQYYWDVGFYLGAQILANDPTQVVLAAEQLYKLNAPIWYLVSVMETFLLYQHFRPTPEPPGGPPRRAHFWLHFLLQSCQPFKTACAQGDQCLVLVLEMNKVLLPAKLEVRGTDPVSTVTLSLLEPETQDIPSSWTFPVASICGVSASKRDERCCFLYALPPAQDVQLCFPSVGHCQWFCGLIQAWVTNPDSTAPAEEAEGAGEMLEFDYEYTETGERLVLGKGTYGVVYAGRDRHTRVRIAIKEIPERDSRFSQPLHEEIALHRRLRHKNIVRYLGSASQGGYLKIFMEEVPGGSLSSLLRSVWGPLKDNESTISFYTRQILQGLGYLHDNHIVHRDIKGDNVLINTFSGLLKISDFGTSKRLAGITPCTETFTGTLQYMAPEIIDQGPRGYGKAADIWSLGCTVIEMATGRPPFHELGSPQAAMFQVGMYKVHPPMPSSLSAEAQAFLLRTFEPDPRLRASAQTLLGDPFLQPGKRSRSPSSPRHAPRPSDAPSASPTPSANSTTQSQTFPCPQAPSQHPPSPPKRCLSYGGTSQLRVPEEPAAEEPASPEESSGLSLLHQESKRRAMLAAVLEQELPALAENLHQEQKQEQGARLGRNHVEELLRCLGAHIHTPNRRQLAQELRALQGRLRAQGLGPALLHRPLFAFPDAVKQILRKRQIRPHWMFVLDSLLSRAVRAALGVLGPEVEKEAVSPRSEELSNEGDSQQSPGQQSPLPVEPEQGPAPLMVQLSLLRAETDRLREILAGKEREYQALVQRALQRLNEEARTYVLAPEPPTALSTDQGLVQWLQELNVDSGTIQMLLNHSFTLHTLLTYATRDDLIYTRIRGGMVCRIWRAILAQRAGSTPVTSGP

In the case of CN1CCN(C(=O)c2ccc3cc(CCNc4ccnc5ccc(C#N)cc45)ccc3c2)CC1 [compound 6148, 4-((2-(6-(4-methylpiperazine-1-carbonyl)naphthalen-2-yl)ethyl)amino)quinoline-6-carbonitrile], the Kd (MYO3B) is reported as > 30 µM, the remaining binding at 2 µM (MYO3A) is reported as 100% and the remaining binding at 2 µM (MST4) is reported as 68%. For the same molecule, the remaining binding at 2 µM (CDK4) was 67%, the remaining binding at 2 µM (MRCKA (CDC42BPA)) was 98% and the remaining binding at 2 µM (JNK2 (MAPK9)) was 67%. For the same molecule, the remaining binding at 2 µM [1] was 73%, the remaining binding at 2 µM (AAK1) was 84% and the IC50 (IL8) was 25 to 35 nM. It also gave an IC50 (MYC) of 25 to 35 nM, an IC50 (CXCL1) of 25 to 35 nM and a remaining binding at 2 µM (MARK1) of 81%. The remaining binding at 2 µM (ABL1-phosphorylated) was 67%, the remaining binding at 2 µM (NLK) was 90% and the remaining binding at 2 µM (BLK) was 100%. The remaining binding at 2 µM (ASK2 (MAP3K6)) was 79%, the remaining binding at 2 µM (CDC2L5 (CDK13)) was 64% and the remaining binding at 2 µM (KIT(V559D, V654A)) was 89%. It also gave a remaining binding at 2 µM (BTK) of 78%, a remaining binding at 2 µM (RIPK4) of 57% and a remaining binding at 2 µM (PAK4) of 97%. For the same molecule, the remaining binding at 2 µM (MAP3K4) was 81%, the remaining binding at 2 µM (TXK) was 94% and the remaining binding at 2 µM (ACVR1) was 92%. The remaining binding at 2 µM (ERK3 (MAPK6)) was 89%, the remaining binding at 2 µM (PFTK1 (CDK14)) was 98% and the remaining binding at 2 µM [2] was 60%. For the same molecule, the remaining binding at 2 µM (MLK3 (MAP3K11)) was 99%, the remaining binding at 2 µM (SNARK (NUAK2)) was 75% and the remaining binding at 2 µM (CDK3) was 86%. For the same molecule, the remaining binding at 2 µM (CSF1R-autoinhibited) was 91%, the remaining binding at 2 µM (CSF1R) was 85% and the remaining binding at 2 µM (YANK2 (STK32B)) was 89%. For the same molecule, the remaining binding at 2 µM (FES) was 81%.
